Source: patent publication US20250019386A1, “PYRROLO[1,2-b]-2-PYRIDAZINONE COMPOUNDS AS 5-HT4 RECEPTOR AGONISTS” (SUVEN LIFE SCIENCES LIMITED, priority 2022, published 2025)

What was measured:
[1] = Rat pharmacokinetic study; assay type: in vivo; conditions: male Wistar rats, plasma
Method: Male Wistar rats (250±50 g) were used as experimental animals. Animals were housed individually in polypropylene cages. Two days prior to study, rats were anesthetized with isoflurane for surgical placement of jugular vein catheter. Rats were randomly divided for oral (3 mg/kg and 10 mL/kg as dose volume) and intravenous (1 mg/kg and 2 mL/kg as dose volume) dosing (n=3/group) and fasted overnight before oral dosing (p.o.). However, rats allocated to intravenous dosing food and water was provided ad libitum.
Intravenous formulation was prepared by using water for injection as vehicle. For Oral, formulation was prepared by using reagent grade water as vehicle. The dose formulations were prepared freshly on the day of dosing.
After dosing of animal, each time point a 200 μL of blood sample was collected through jugular vein and replenished with an equivalent volume of normal saline. The collected blood sample was transferred into a labeled eppendorf tube containing 10 μL of sodium heparin (1000 IU/mL) as an anticoagulant. Typically blood samples were collected at following time points: 0.08, 0.25, 0.5, 1, 2, 4, 6, 8, and 24 h post dose. Blood was centrifuged at 4000 rpm for 10 min. Plasma was separated and stored frozen at −80° C. until analysis. The concentrations of the test compounds were quantified in plasma by qualified LC-MS/MS method using a suitable extraction technique. The test compounds were quantified in the calibration range around 1-2000 ng/mL in plasma. Study samples were analyzed using calibration samples in the batch and quality control samples spread across the batch.
Pharmacokinetic parameters Cmax, AUCt, t1/2 and bioavailability were calculated by non-compartmental model using standard non-compartmental model by using Phoenix WinNonlin 6.4 version Software.

[2] = target: 5-HT4 receptors (Homo sapiens (Human), UniProt Q13639); assay: Determination of EC50 values for 5-HT4 receptor (pCRE-Luc reporter assay); assay type: cell-based; conditions: CHO cells expressing recombinant human 5-HT4 receptor and pCRE-Luc reporter; 4 h incubation; luciferase activity
5-HT4 receptors, sequence (Q13639 whole entry): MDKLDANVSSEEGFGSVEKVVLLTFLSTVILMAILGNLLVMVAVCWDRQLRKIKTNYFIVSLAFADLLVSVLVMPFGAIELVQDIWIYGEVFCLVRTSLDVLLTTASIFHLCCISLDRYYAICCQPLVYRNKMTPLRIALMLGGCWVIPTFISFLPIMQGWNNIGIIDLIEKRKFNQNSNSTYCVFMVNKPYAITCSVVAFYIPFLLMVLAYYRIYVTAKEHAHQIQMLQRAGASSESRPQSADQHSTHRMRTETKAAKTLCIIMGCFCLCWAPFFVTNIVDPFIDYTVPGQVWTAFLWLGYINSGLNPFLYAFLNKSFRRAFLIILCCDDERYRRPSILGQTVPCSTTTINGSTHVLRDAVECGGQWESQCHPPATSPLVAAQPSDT
Method: A stable CHO cell line expressing recombinant human 5-HT4 receptor and pCRE-Luc reporter system was used for cell-based assay. The assay offers a non-radioactive based approach to determine binding of a compound to GPCRs. In this specific assay, the level of intracellular cyclic AMP, which is modulated by activation, or inhibition of the receptor is measured. The recombinant cells harbor luciferase reporter gene under the control of cAMP response element.
The above cells were grown in 96 well clear bottom white plates in Ham's F12 medium containing 10% fetal bovine serum. Prior to the addition of compounds or standard agonist, cells were serum starved overnight. Increasing concentrations of test compounds were added to the cells in OptiMEM medium. The incubation was continued in CO2 incubator at 37° C. with 5% CO2 conditions for 4 h. Medium was removed and cells were washed with phosphate buffered saline. The cells were lysed and luciferase activity was measured in a Luminometer. Concentration-response data was generated using the luciferase assay, following incubation of cells with receptor ligands, were analyzed by subtracting basal levels (i.e. with medium alone), then normalizing values as a percentage of controls (endogenous agonist serotonin (10 μM)). […] EC50 values of the compounds were defined as the concentration required in stimulating the luciferase activity by 50%.

Compound `CC(C)n1c(=O)c(C(=O)NC2CC3CCC(C2)N3C[C@@H](O)CN(C)S(C)(=O)=O)cc2cccn21.O=C(O)C(O)C(O)C(=O)O` (single isomer, unassigned) [Example 2] has an AUC(0-t) ([1]; intravenous (bolus), 1 mg/kg) of 65 ± 3 ng·h/mL, a half-life ([1]; intravenous (bolus), 1 mg/kg) of 1.5 ± 0.5 h and an AUC(0-t) ([1]; oral (gavage), 3 mg/kg) of 160 ± 35 ng·h/mL. It also gave a Cmax ([1]; oral (gavage), 3 mg/kg) of 51 ± 19 ng/mL, a bioavailability ([1]; oral 3 mg/kg vs intravenous 1 mg/kg) of 83 ± 18% and an EC50 [2] of 4.1 nM.
